Measurements reported in ChEMBL document CHEMBL5543137, “Design and Synthesis of Novel Ultralong-Acting Peptides as EDP-EBP Interaction Inhibitors for Pulmonary Fibrosis Treatment” (J Med Chem, 2024).
Activity calls are given as the source filed them. No cut-off for these calls is given here. Starred links: 1 amine or outer side, 2 acyl side, 3 side chain; linkers in the order of their positions; H or OH if unused. Non-standard residues stand in square brackets, D forms with d. Residues, ends and D or L forms follow the SMILES beside them. *: point of attachment. C20 diacid = O=C(O)CCCCCCCCCCCCCCCCCCC(=O)*; γGlu = O=C(O)[C@H](CCC(=O)[*:2])N[*:1]; Iva = CC[C@](C)(N)C(=O)O; PEG2 = NCCOCCOCCC(=O)O

Tests used:
[1] = system: Mus musculus; experiment: Antifibrotic activity against BLM-induced C57BL/6 mouse pulmonary fibrosis model assessed as reduction in Vimentin expression at 240 ug/kg/day, sc administered for 2 weeks starting from 7 days post BLM induction and measured after 21 days post BLM induction in presence of GM6001; format: functional, organism-based; conditions: dose 240.0 µg/kg/day
[2] = system: Mus musculus; experiment: Antifibrotic activity against BLM-induced C57BL/6 mouse pulmonary fibrosis model assessed as downregulation of Fn gene expression in lung tissue at 150 ug/kg, sc administered for 2 weeks starting from 7 days post BLM induction and measured after 21 days post BLM induction by RT-qPCR assay; format: functional, organism-based; conditions: dose 150.0 µg/kg
[3] = system: A549; experiment: Antifibrotic activity against TNFalpha-induced human A549 cells assessed as downregulation of vimentin gene expression level at 10 uM incubated for 24 hrs by RT-qPCR analysis; format: functional, cell-based
[4] = system: Mus musculus; experiment: Antifibrotic activity against BLM-induced C57BL/6 mouse pulmonary fibrosis model assessed as reduction in alpha-SMA expression at 240 ug/kg/day, sc administered for 2 weeks starting from 7 days post BLM induction and measured after 21 days post BLM induction in presence of GM6001; format: functional, organism-based; conditions: dose 240.0 µg/kg/day
[5] = system: Mus musculus; experiment: Antifibrotic activity against BLM-induced C57BL/6 mouse pulmonary fibrosis model assessed as reduction in lung Fn expression at 240 ug/kg/day, sc administered for 2 weeks starting from 7 days post BLM induction and measured after 21 days post BLM induction by Western blotting analysis; format: functional, organism-based; conditions: dose 240.0 µg/kg/day
[6] = system: Mus musculus; experiment: Antifibrotic activity against BLM-induced C57BL/6 mouse pulmonary fibrosis model assessed as reduction in vimentin gene expression at 240 ug/kg/day, sc administered for 2 weeks starting from 7 days post BLM induction and measured after 21 days post BLM induction by ScRNA-sequencing analysis; format: functional, organism-based; conditions: dose 240.0 µg/kg/day
[7] = system: Mus musculus; experiment: Antifibrotic activity against BLM-induced C57BL/6 mouse pulmonary fibrosis model assessed as reduction in lung alpha-SMA expression at 240 ug/kg/day, sc administered for 2 weeks starting from 7 days post BLM induction and measured after 21 days post BLM induction by Western blotting analysis; format: functional, organism-based; conditions: dose 240.0 µg/kg/day
[8] = system: TC-1; experiment: Inhibition of EBP signaling pathway in TGFalpha induced mouse TC-1 cells assessed as reduction in PI3K phosphorylation at 10 uM incubated for 24 hrs by Western blotting analysis; format: cell-based
[9] = system: A549; experiment: Antifibrotic activity against TNFalpha-induced human A549 cells assessed as downregulation of Tgfb1 gene expression level at 10 uM incubated for 24 hrs by RT-qPCR analysis; format: functional, cell-based
[10] = system: RAW264.7; experiment: Antifibrotic activity against BLM-induced mouse RAW264.7 cells assessed as upregulation of MMP-12 mRNA expression at 10 uM incubated for 6 to 24 hrs by RT-qPCR analysis; format: functional, cell-based; conditions: time 6-24 hrs
[11] = system: Mus musculus; experiment: Antifibrotic activity against BLM-induced sc dosed C57BL/6 mouse pulmonary fibrosis model assessed as reversal of lung indices administered for 2 weeks starting from 7 days post BLM induction and measured after 21 days post BLM induction; format: functional, organism-based; conditions: dose 30-240 µg/kg
[12] = system: Mus musculus; experiment: Antifibrotic activity against BLM-induced C57BL/6 mouse pulmonary fibrosis model assessed as reduction in Fn gene expression at 240 ug/kg/day, sc administered for 2 weeks starting from 7 days post BLM induction and measured after 21 days post BLM induction by ScRNA-sequencing analysis; format: functional, organism-based; conditions: dose 240.0 µg/kg/day
[13] = system: Mus musculus; experiment: Antifibrotic activity against BLM-induced C57BL/6 mouse pulmonary fibrosis model assessed as reduction in Tpm1 gene expression at 240 ug/kg/day, sc administered for 2 weeks starting from 7 days post BLM induction and measured after 21 days post BLM induction by ScRNA-sequencing analysis; format: functional, organism-based; conditions: dose 240.0 µg/kg/day
[14] = system: Mus musculus; experiment: Antifibrotic activity against BLM-induced C57BL/6 mouse pulmonary fibrosis model assessed as reduction in MMP-12 expression at 240 ug/kg/day, sc administered for 2 weeks starting from 7 days post BLM induction and measured after 21 days post BLM induction in presence of Clo-Lip; format: functional, organism-based; conditions: dose 240.0 µg/kg/day
[15] = system: TC-1; experiment: Antifibrotic activity against BLM-induced mouse TC-1 cells assessed as reduction in FN expression at 10 uM after 24 hrs by Western blotting analysis; format: functional, cell-based
[16] = system: Mus musculus; experiment: Antifibrotic activity against BLM-induced C57BL/6 mouse pulmonary fibrosis model assessed as improvement in lung condition at 30 to 240 ug/kg, sc administered for 2 weeks starting from 7 days post BLM induction and measured after 21 days post BLM induction; format: functional, organism-based; conditions: dose 30-240 µg/kg
[17] = Half life in cynomolgus monkey at 0.06 mg/kg, sc administered as single dose measured upto 30 days by LC-MS/MS method; format: ADME, organism-based, Macaca fascicularis; conditions: in vivo, time < 30 day
[18] = system: Mus musculus; experiment: Antifibrotic activity against BLM-induced C57BL/6 mouse pulmonary fibrosis model assessed as reduction in Tnc gene expression at 240 ug/kg/day, sc administered for 2 weeks starting from 7 days post BLM induction and measured after 21 days post BLM induction by ScRNA-sequencing analysis; format: functional, organism-based; conditions: dose 240.0 µg/kg/day
[19] = system: Mus musculus; experiment: Antifibrotic activity against BLM-induced C57BL/6 mouse pulmonary fibrosis model assessed as reduction in Fbn1 gene expression at 240 ug/kg/day, sc administered for 2 weeks starting from 7 days post BLM induction and measured after 21 days post BLM induction by ScRNA-sequencing analysis; format: functional, organism-based; conditions: dose 240.0 µg/kg/day
[20] = system: Mus musculus; experiment: Antifibrotic activity against BLM-induced sc dosed C57BL/6 mouse pulmonary fibrosis model assessed as reversal of body weight indices administered for 2 weeks starting from 7 days post BLM induction and measured after 21 days post BLM induction; format: functional, organism-based; conditions: dose 30-240 µg/kg
[21] = system: Mus musculus; experiment: Antifibrotic activity against BLM-induced C57BL/6 mouse pulmonary fibrosis model at 240 ug/kg/day, sc administered for 2 weeks starting from 7 days post BLM induction and measured after 21 days post BLM induction in presence of Clo-Lip; format: functional, organism-based; conditions: dose 240.0 µg/kg/day
[22] = system: Mus musculus; experiment: Antifibrotic activity against BLM-induced C57BL/6 mouse pulmonary fibrosis model assessed as reduction in lung hydroxyproline content at 150 ug/kg, sc administered for 2 weeks starting from 7 days post BLM induction and measured after 21 days post BLM induction; format: functional, organism-based; conditions: dose 150.0 µg/kg
[23] = Tmax in Sprague-Dawley rat serum at 0.04 mg/kg, sc administered as single dose measured upto 10 days by LC-MS/MS method; format: ADME, organism-based; conditions: time < 10 day
[24] = system: Mus musculus; experiment: Antifibrotic activity against BLM-induced C57BL/6 mouse pulmonary fibrosis model assessed as reduction in Cthrc1 gene expression at 240 ug/kg/day, sc administered for 2 weeks starting from 7 days post BLM induction and measured after 21 days post BLM induction by ScRNA-sequencing analysis; format: functional, organism-based; conditions: dose 240.0 µg/kg/day
[25] = system: Mus musculus; experiment: Antifibrotic activity against BLM-induced C57BL/6 mouse pulmonary fibrosis model assessed as reduction in Col1a1 gene expression at 240 ug/kg/day, sc administered for 2 weeks starting from 7 days post BLM induction and measured after 21 days post BLM induction by ScRNA-sequencing analysis; format: functional, organism-based; conditions: dose 240.0 µg/kg/day
[26] = system: Mus musculus; experiment: Antifibrotic activity against BLM-induced C57BL/6 mouse pulmonary fibrosis model assessed as reduction in Fstl1 gene expression at 240 ug/kg/day, sc administered for 2 weeks starting from 7 days post BLM induction and measured after 21 days post BLM induction by ScRNA-sequencing analysis; format: functional, organism-based; conditions: dose 240.0 µg/kg/day
[27] = system: A549; experiment: Downregulation of EDP level in TNFalpha induced human A549 cells at 1 to 10 uM; format: functional, cell-based; conditions: dose 1-10 µM
[28] = system: Mus musculus; experiment: Antifibrotic activity against BLM-induced C57BL/6 mouse pulmonary fibrosis model assessed as downregulation of IL-6 gene expression in lung tissue at 150 ug/kg, sc administered for 2 weeks starting from 7 days post BLM induction and measured after 21 days post BLM induction by RT-qPCR assay; format: functional, organism-based; conditions: dose 150.0 µg/kg

CC[C@](C)(NC(=O)[C@@H](NC(=O)CCOCCOCCNC(=O)CCOCCOCCNC(=O)CC[C@H](NC(=O)CCCCCCCCCCCCCCCCCCC(=O)O)C(=O)O)C(C)C)C(=O)NCC(=O)N[C@@H](CO)C(=O)N1CCC[C@H]1C(=O)N[C@@H](CO)C(=O)N[C@@H](C)C(=O)N[C@@H](CCC(N)=O)C(=O)N[C@@H](CCC(=O)O)C(=O)N[C@@H](CCC(=O)O)C(=O)N[C@@H](C)C(=O)N[C@@H](CO)C(=O)N1CCC[C@H]1C(=O)N[C@@H](C)C(N)=O ({C20 diacid-γGlu-PEG2-PEG2}-V[Iva]GSPSAQEEASPA-NH2)
Activity [1]: inactive
Activity [2]: Active
Activity [3]: Active
Activity [4]: inactive
Activity [5]: Active
Activity [6]: Active
Activity [7]: Active
inhibition [8]: Active
Activity [9]: Active
Activity [10]: Active
Activity [11]: Dose-Dependent Effect
Activity [12]: Active
Activity [13]: Active
Activity [14]: inactive
Activity [15]: Active
Activity [16]: Active
half-life [17]: 10.7 days
Activity [18]: Active
Activity [19]: Active
Activity [20]: Dose-Dependent Effect
Activity [21]: inactive
Activity [22]: Active
Tmax [23]: 24 h
Activity [24]: Active
Activity [25]: Active
Activity [26]: Active
Activity [27]: Dose-Dependent Effect
Activity [28]: Active
